Test systems include 786-0 renal; HCT-116 colon; K-562 leukemia; MCF7 breast; MDA-MB-231 breast; MDA-MB-435; NCI-H226 lung; SK-OV-3 ovarian; SNB-75 CNS; TK-10 renal.
What all share (assay): NCI tumour cell line growth inhibition, 48 h

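Values below derive from 48-hour exposures of cells grown in 96-well plates, with endpoints linearly interpolated between the two concentrations bracketing the appropriate inhibition level. GI50 marks 50% less growth. TGI marks complete inhibition of growth.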

As for `O=C(Oc1cccnc1)c1ccsc1Nc1ccnc(C(F)(F)F)c1`, the GI50 in the assay with 786-0 renal was 53 µM; in the assay on HCT-116 colon, 3.95 µM; with K-562 leukemia, 3740 nM; in the assay with MCF7 breast, 3.51 µM; with MDA-MB-231 breast, 6.03 µM; in the assay with MDA-MB-435, 2880 nM. Also, the GI50 in the assay on NCI-H226 lung is 22.3 µM; with SK-OV-3 ovarian it was 4 µM; in the assay with SNB-75 CNS, 25.2 µM; in the assay with TK-10 renal, 4.91 µM. For the same compound, the TGI in the assay with 786-0 renal is greater than 100 µM; in the assay with HCT-116 colon it was greater than 100 µM; in the assay on K-562 leukemia it was greater than 100 µM; in the assay with MCF7 breast it was greater than 100 µM; in the assay on MDA-MB-231 breast, greater than 100 µM; with MDA-MB-435, 11.8 µM. Moreover, the TGI is greater than 100 µM in the assay with NCI-H226 lung, 29.5 µM with SK-OV-3 ovarian, greater than 100 µM in the assay with SNB-75 CNS and 93.7 µM in the assay with TK-10 renal.
Consider `N#Cc1c(N)[nH]c2ccc(Sc3ccccc3)cc12`, for which the TGI in the assay with 786-0 renal worked out at 8.1 µM; in the assay on HCT-116 colon it was 8.34 µM; in the assay on K-562 leukemia it was 9.71 µM; in the assay with MCF7 breast, 16.6 µM; in the assay with MDA-MB-231 breast, 15.4 µM; in the assay with MDA-MB-435 it was 0.146 µM. In addition, the TGI in the assay on NCI-H226 lung stood at 1.29 µM; in the assay on SK-OV-3 ovarian it was 20.3 µM; in the assay on SNB-75 CNS it was 23 µM; in the assay on TK-10 renal, 20.8 µM.
In the case of `CC(C)=CCC/C(C)=C/CC/C(C)=C/CC/C=C(\C)CC/C=C(\C)CCC(=O)Nc1ccn(C2OC(CO)C(O)C2(F)F)c(=O)n1` (stereo not drawn), the GI50 in the assay with 786-0 renal was less than 0.0157 µM; in the assay with HCT-116 colon, 0.0314 µM; with K-562 leukemia, 989 nM; with MCF7 breast, less than 0.011 µM; in the assay with MDA-MB-231 breast, 12.8 µM; in the assay with MDA-MB-435, 144 nM. For the same compound, the GI50 is 2.5 µM with NCI-H226 lung, 0.0644 µM with SK-OV-3 ovarian, 3 µM in the assay with SNB-75 CNS and 3.05 µM in the assay with TK-10 renal. Further, the TGI in the assay with 786-0 renal is less than 0.0341 µM; in the assay on HCT-116 colon, 1.14 µM; with K-562 leukemia it was 24.9 µM; with MCF7 breast, 4.34 µM; in the assay with MDA-MB-231 breast, 27.1 µM; in the assay with MDA-MB-435, 7.58 µM. Moreover, the TGI in the assay with NCI-H226 lung was 20.4 µM; in the assay on SK-OV-3 ovarian, 13.8 µM; with SNB-75 CNS, 23.3 µM; with TK-10 renal, 18.8 µM.
Regarding `COc1ccc(OC)c(Cn2cc3c(c2)-c2oncc2CC3)c1`, the GI50 in the assay with 786-0 renal is 5.49 µM; in the assay with HCT-116 colon, 3.32 µM; in the assay on K-562 leukemia it was 762 nM; in the assay on MCF7 breast, 3.02 µM; in the assay with MDA-MB-231 breast, 5.02 µM; in the assay with MDA-MB-435, 316 nM. For the same compound, the GI50 in the assay on NCI-H226 lung was 7.67 µM; with SK-OV-3 ovarian, 3.13 µM; with SNB-75 CNS, 1.75 µM; in the assay on TK-10 renal, 4.23 µM. Also, the TGI in the assay with 786-0 renal was greater than 63.6 µM; in the assay on HCT-116 colon, 39 µM; in the assay with K-562 leukemia, greater than 57.8 µM; in the assay with MCF7 breast, greater than 81.9 µM; in the assay on MDA-MB-231 breast, greater than 72 µM; in the assay on MDA-MB-435 it was 1.42 µM. Besides, the TGI in the assay with NCI-H226 lung is greater than 100 µM; in the assay with SK-OV-3 ovarian, greater than 57.5 µM; with SNB-75 CNS it was 6.56 µM; with TK-10 renal it was greater than 100 µM.
Regarding `CCN(CCO)CC(C)Nc1ccc([N+](=O)[O-])c2sc3ccccc3c(=O)c12` (stereo not drawn), the GI50 was 1.37 µM in the assay on 786-0 renal; 0.996 µM in the assay with HCT-116 colon; 1440 nM with K-562 leukemia; 0.436 µM in the assay with MCF7 breast; 2.6 µM in the assay with MDA-MB-231 breast; 1540 nM in the assay on MDA-MB-435. In addition, the GI50 is 1.37 µM in the assay with NCI-H226 lung, 2.53 µM in the assay on SK-OV-3 ovarian, 1.84 µM in the assay on SNB-75 CNS and 1.44 µM in the assay with TK-10 renal. Moreover, the TGI in the assay on 786-0 renal turned out to be 3.97 µM; in the assay on HCT-116 colon, 2.69 µM; with K-562 leukemia, 6.71 µM; in the assay on MCF7 breast it was 4.15 µM; in the assay with MDA-MB-231 breast, 12.3 µM; in the assay on MDA-MB-435, 3.8 µM. Also, the TGI in the assay with NCI-H226 lung is 7.15 µM; in the assay on SK-OV-3 ovarian it was 14 µM; with SNB-75 CNS, 12.6 µM; with TK-10 renal it was 11.7 µM.
As to `CC1=CC(=O)C(O)C2(C)C1CC(O)C13COC4(C)C(OC(=O)C41)C(O)C23` (stereo not drawn), the GI50 in the assay with 786-0 renal was 5.13 µM; in the assay with HCT-116 colon, 4.11 µM; in the assay on K-562 leukemia, 5480 nM; in the assay on MCF7 breast, 3.95 µM; with MDA-MB-231 breast it was 15.4 µM; with MDA-MB-435 it was 6860 nM. In addition, the GI50 was 3.48 µM with NCI-H226 lung, 16.5 µM in the assay with SK-OV-3 ovarian, 22 µM with SNB-75 CNS and 12.1 µM with TK-10 renal. In addition, the TGI is 27.4 µM with 786-0 renal; 19.3 µM with HCT-116 colon; greater than 100 µM with K-562 leukemia; 21.9 µM with MCF7 breast; 43.9 µM with MDA-MB-231 breast; 43 µM in the assay with MDA-MB-435. The TGI with NCI-H226 lung is 21.2 µM; with SK-OV-3 ovarian it was 95.7 µM; with SNB-75 CNS, greater than 100 µM; with TK-10 renal, 44.3 µM.
In the case of `CCOc1nc(N)nc(C)c1N=Nc1ccc(Cl)cc1`, the TGI in the assay with 786-0 renal, in the assay with HCT-116 colon, in the assay with K-562 leukemia, in the assay on MCF7 breast, with MDA-MB-231 breast and in the assay on MDA-MB-435 was greater than 100 µM each time. Further, the TGI in the assay with NCI-H226 lung, in the assay on SK-OV-3 ovarian, in the assay with SNB-75 CNS and with TK-10 renal was greater than 100 µM throughout.
`COC1O[C@@H]2C[C@H]3C(C)(C)CCC[C@]3(C)C3=CCCC1[C@@]32C` (stereo partly drawn): the GI50 in the assay with 786-0 renal is greater than 100 µM; with HCT-116 colon, greater than 100 µM; in the assay on K-562 leukemia, greater than 100000 nM; in the assay on MCF7 breast it was greater than 100 µM; in the assay on MDA-MB-231 breast, greater than 100 µM; in the assay on MDA-MB-435 it was greater than 100000 nM. Besides, the GI50 in the assay with NCI-H226 lung, in the assay on SNB-75 CNS and in the assay with TK-10 renal was greater than 100 µM throughout. In addition, the TGI in the assay with 786-0 renal, with HCT-116 colon, in the assay with K-562 leukemia, in the assay with MCF7 breast, in the assay with MDA-MB-231 breast and with MDA-MB-435 was greater than 100 µM throughout. The TGI with NCI-H226 lung, in the assay with SNB-75 CNS and with TK-10 renal was greater than 100 µM each time.

The values are drawn from PubChem BioAssay (NCI).
